Assays:
[1] = test system: olfactory receptor neurons; assay: Whole-cell patch-clamp recording of single olfactory neurons; assay type: cell-based, rat; conditions: FIG. 7
From the text: FIG. 6 illustrates electrophysiological recordings from a rat olfactory epithelium and a single olfactory neuron where the stimulus was a 0.5-s pulse of air or an odorant mixture. The odorant concentration was constant for all traces. […] Vapor of odorants were collected above the odorant solutions (in water) of concentrations shown. […] The stimulus was a 0.5 second pulse of odorant/zinc particle mixture. Downward direction indicates inward current.
FIG. 7 illustrates results from EGTA experiments and Zn^+2 ions experiments. […] It is widely known that EGTA binds multivalent metals. When Zn metal nanoparticles are bound by EGTA, the number of particles participating in olfactory signal transduction is reduced, and the odorant response is decreased. […] When the patch electrode is filled with a solution containing 500 pM EGTA, the odorant-evoked current changes markedly. Few minutes after beginning the perfusion, a progressive […] in the amplitude of the odorant triggered inward currents is noted.

rat olfactory epithelium = assay: EOG recording of rat olfactory epithelium, odorant puffs; assay type: cell-based; conditions: FIG. 7 chart 720; external perfusion of ZnCl2 solutions, same range of concentrations as nanoparticles (10^−9-10^−15 M)
From the text: The averaged activity of the receptor neuron to an odor can be measured by an electroolfactogram (EOG). In this process, fragments of olfactory epithelaia, either cultured or dissected from natural sources (e.g., mice and dogs), are placed in an EOG recording chamber with a buffer solution. The epithelial cilia are exposed. Electrodes are connected to the tissues through a patch-clamp amplifier to detect electrical activity of the olfactory epithelia. In general air puff or plums of an odorant mixture are applied over the olfactory epithelia through a small pipet or capillary, before and after being treated with the metal composition, described in detail below. The amplitude of the electrical signal to the amount of the odorant is plotted over time after the electrical signal is amplified and filtered.
FIG. 3C is a graph 370 showing amplitude plots 371, 373, 375 and 377 of Electroolfactogram recordings. In this case rat olfactory tissue was placed in an EOG recording chamber with a buffer solution and connected to electrodes through an amplifier. Air puffs or plumes of an odorant mixture are applied over the rat olfactory tissue and the electrical response was measured and the normalized peak amplitudes were plotted over time over time.
FIG. 5 illustrates EOG traces from rat olfactory epithelium. Responses were induced by air odorants and a mixture of odorants and zinc metal particles. […]

Structure (SMILES)	effect on odorant response measured by patch-clamp ([1]; 500 pM perfused inside olfactory neurons)	dose dependence of the effect on odorant response ([1]; perfused inside olfactory neurons)	odorant response by olfactory receptor neurons (rat olfactory epithelium)
O=C(O)CN(CCOCCOCCN(CC(=O)O)CC(=O)O)CC(=O)O [EGTA, ethylene glycol tetraacetic acid]	clearly inhibit odorant response	dose dependent	–
[Zn+2] [Zn^+2 ions, ZnCl2]	–	–	reduced

Reference: patent US9132086B2, “Compositions for and methods of controlling olfactory responses to odorants” (Auburn University, priority 2006, dated 2015)
